Measurements as given in EPA's ToxRefDB 2.

Experiments:
dog [1] = settings: Chronic toxicity; beagle; Oral; Gavage/Intubation; dose end: 364 day; group: systemic; systemic / in life observation / body weight / body weight + systemic / in life observation / clinical signs / arrhythmia + systemic / in …
rat [2] = settings: Sub-acute repeat dose toxicity, sprague dawley, Oral, Gavage/Intubation, dose end: 30 day, group: systemic
rabbit [3] = settings: Sub-acute repeat dose toxicity; new zealand white; Oral; Gavage/Intubation; dose end: 5 day; group: systemic; systemic / in life observation / body weight / body weight + systemic / in life observation / food consumption / food consumption
dog [4] = settings: Sub-acute repeat dose toxicity; beagle; Oral; Gavage/Intubation; dose end: 30 day; group: systemic; systemic / clinical chemistry / potassium / potassium + systemic / in life observation / clinical signs / emesis + systemic / in life …
rat [5] = settings: Fertility (Segment I), sprague dawley, Oral, Gavage/Intubation, dose end: 1 generation, group: parental
rabbit [6] = settings: Prenatal developmental toxicity study, Oral, Gavage/Intubation, dose end: 19 GD
mouse [7] = settings: Sub-acute repeat dose toxicity, Oral, Feed, dose end: 14 day, group: systemic
rat [8] = settings: Sub-acute repeat dose toxicity, sprague dawley, Oral, Gavage/Intubation, dose end: 14 day, group: systemic
rat [9] = settings: Sub-acute repeat dose toxicity, sprague dawley, Oral, Feed, dose end: 14 day, group: systemic
rat [10] = settings: Fertility (Segment I), sprague dawley, Oral, Gavage/Intubation, dose end: 1 generation, group: parental; remark: listed apart in the source
dog [11] = settings: Sub-acute repeat dose toxicity; beagle; Oral; Gavage/Intubation; dose end: 10 day; group: systemic; systemic / in life observation / clinical signs / abnormal feces + systemic / in life observation / clinical signs / salivation + systemic…
rat [12] = settings: Chronic toxicity; sprague dawley; Oral; Gavage/Intubation; dose end: 182 day; group: systemic; systemic / clinical chemistry / glucose / glucose + systemic / clinical chemistry / triglycerides / triglycerides + systemic / in life …
dog [13] = settings: Chronic toxicity; beagle; Oral; Feed; dose end: 52 week; group: systemic; systemic / clinical chemistry / creatinine / creatinine + systemic / clinical chemistry / urea nitrogen / urea + systemic / pathology …
rat [14] = settings: Subchronic oral toxicity in rodents, sprague dawley, Gavage/Intubation, dose end: 28 day, group: systemic
rat [15] = settings: Subchronic oral toxicity in rodents, sprague dawley, Feed, dose end: 28 day, group: systemic
rabbit [16] = settings: Prenatal developmental toxicity study, other, Oral, Gavage/Intubation, dose end: 19 GD
rat [17] = settings: Subchronic oral toxicity in rodents, sprague dawley, Feed, dose end: 3 month, group: systemic
rat [18] = settings: Subchronic dermal toxicity, sprague dawley, Topical, dose end: 28 day, group: systemic, systemic / clinical chemistry / alkaline phosphatase (alp/alk) / alkaline phosphatase (alp/alk) + systemic / clinical chemistry / glucose / …
mouse [19] = settings: Subchronic oral toxicity in rodents, other, Feed, dose end: 13 week, group: systemic
rat [20] = settings: Combined chronic toxicity/carcinogenicity; sprague dawley; Oral; Feed; dose end: 24 month; group: systemic; systemic / pathology microscopic / kidney / infiltration cellular + systemic / pathology microscopic / kidney / nephropathy
dog [21] = settings: Subchronic oral toxicity in nonrodent, beagle, Feed, dose end: 13 week, group: systemic, systemic / clinical chemistry / alanine aminotransferase (alt/sgpt) / alanine aminotransferase (alt/sgpt) + systemic / clinical chemistry / …
mouse [22] = settings: Other (NonGuideline or Guideline Not Listed), Oral, Feed, dose end: 59 day, group: cannot be grouped
rabbit [23] = settings: Prenatal developmental toxicity study, himalayan, Oral, Gavage/Intubation, dose end: 19 GD
mouse [24] = settings: Carcinogenicity, other, Oral, Feed, dose end: 78 week, group: systemic
rat [25] = settings: Prenatal developmental toxicity study, other, Oral, Gavage/Intubation, dose end: 15 GD
dog [26] = settings: Subchronic oral toxicity in nonrodent, beagle, Feed, dose end: 28 day, group: systemic, systemic / in life observation / food consumption / food consumption + systemic / in life observation / body weight / body weight + systemic…
rat [27] = settings: Prenatal developmental toxicity study, other, Oral, Gavage/Intubation, dose end: 15 GD; remark: listed apart in the source
[28] = systemic / clinical chemistry / 5' nucleotidase / 5' nucleotidase + systemic / clinical chemistry / [other] / [other] + systemic / clinical …
[29] = systemic / in life observation / body weight / body weight + systemic / in life observation / clinical signs / salivation + systemic / in …
[30] = systemic / in life observation / body weight / body weight + systemic / in life observation / food consumption / food consumption
[31] = group: developmental, developmental / developmental malformation / bone / delayed ossification + systemic / in life observation / body weight / fetal weight
[32] = group: maternal, systemic / in life observation / body weight / body weight gain + systemic / in life observation / food consumption / food consumption
[33] = systemic / in life observation / body weight / body weight + systemic / in life observation / body weight / body weight gain + systemic / in…
[34] = systemic / hematology / erythrocyte (rbc) count differential / erythrocyte (rbc) + systemic / hematology / hematocrit (hct) / hematocrit (…
[35] = systemic / in life observation / clinical signs / salivation
[36] = systemic / in life observation / food consumption / food consumption + systemic / in life observation / body weight / body weight
[37] = systemic / in life observation / food consumption / food consumption + systemic / in life observation / body weight / body weight + systemic…
[38] = systemic / pathology microscopic / kidney / dilatation + systemic / pathology microscopic / adrenal gland / fatty change + systemic / in …
[39] = systemic / pathology microscopic / kidney / [other] + systemic / pathology microscopic / kidney / dilatation + systemic / pathology …
[40] = systemic / pathology microscopic / kidney / proliferation
[41] = group: developmental, systemic / in life observation / body weight / fetal weight
[42] = group: maternal, systemic / in life observation / body weight / body weight gain + systemic / in life observation / food consumption / food consumption + …
[43] = systemic / pathology microscopic / kidney / hyalinization + systemic / pathology microscopic / kidney / lesion(s) (nos)
[44] = systemic / pathology microscopic / kidney / hyalinization + systemic / pathology microscopic / kidney / lesion(s) (nos) + systemic / …
[45] = systemic / pathology microscopic / liver / hypertrophy
[46] = systemic / pathology microscopic / liver / hypertrophy + systemic / hematology / anemia / anemia - nos + systemic / hematology / erythrocyte…
[47] = systemic / pathology microscopic / liver / proliferation + systemic / organ weight / liver / absolute + systemic / organ weight / liver / …
[48] = group: developmental, developmental / developmental malformation / bone / fused + developmental / developmental malformation / bone / misshapen + developmental / …
[49] = group: maternal, systemic / in life observation / food consumption / food consumption + reproductive / reproductive performance / postimplantation loss / …
[50] = systemic / pathology microscopic / liver / hypertrophy + systemic / pathology microscopic / liver / infiltration cellular + systemic / …
[51] = group: maternal, systemic / in life observation / body weight / body weight gain + systemic / in life observation / body weight / body weight + systemic / in…
[52] = group: developmental, developmental / developmental malformation / bone / incomplete ossification + developmental / developmental malformation / bone / irregular …
[53] = group: maternal, systemic / in life observation / body weight / body weight + systemic / in life observation / body weight / body weight gain + systemic / in…

## O=C(Cc1ccc(Cl)c(Cl)c1)N(O)[C@H](CN1CC[C@H](O)C1)c1ccccc1
Dog [1]
  LEL: 1 mg/kg/day
  LOAEL: > 1 mg/kg/day
  NEL: < 1 mg/kg/day
  NOAEL: ≥ 1 mg/kg/day
Rat [2]; [28]
  LOAEL: > 150 mg/kg/day
  NOAEL: ≥ 150 mg/kg/day
Rat [2]; systemic / clinical chemistry / [other] / [other] + systemic / clinical chemistry / albumin / albumin + systemic / clinical chemistry / …
  NEL: 1 mg/kg/day
Rabbit [3]
  LEL: 1 mg/kg/day
  LOAEL: > 150 mg/kg/day
  NEL: < 1 mg/kg/day
  NOAEL: ≥ 150 mg/kg/day
Dog [4]
  LOAEL: > 1 mg/kg/day
  NOAEL: ≥ 1 mg/kg/day
Rat [5]; [29]
  LOAEL: > 50 mg/kg/day
  NEL: 1 mg/kg/day
  NOAEL: ≥ 50 mg/kg/day
Rat [5]; [30]
  LEL: 10 mg/kg/day
Rabbit [6]; [31]
  LOAEL: > 5 mg/kg/day
  NOAEL: ≥ 5 mg/kg/day
Rabbit [6]; [32]
  LOAEL: > 5 mg/kg/day
  NOAEL: ≥ 5 mg/kg/day
Mouse [7]; [33]
  LOAEL: > 1000 mg/kg/day
  NOAEL: ≥ 1000 mg/kg/day
Mouse [7]; systemic / in life observation / clinical signs / hunched posture
  LEL: 300 mg/kg/day
Rat [8]; [34]
  LOAEL: > 500 mg/kg/day
  NOAEL: ≥ 500 mg/kg/day
Rat [8]; [35]
  LEL: 25 mg/kg/day
  NEL: < 25 mg/kg/day
Rat [9]; [36]
  LEL: 1 mg/kg/day
  NEL: < 1 mg/kg/day
Rat [9]; [37]
  LOAEL: > 300 mg/kg/day
  NOAEL: ≥ 300 mg/kg/day
Rat [10]; [29]
  LOAEL: > 50 mg/kg/day
  NEL: 1 mg/kg/day
  NOAEL: ≥ 50 mg/kg/day
Rat [10]; [30]
  LEL: 10 mg/kg/day
Dog [11]
  LEL: 1 mg/kg/day
  LOAEL: > 1 mg/kg/day
  NEL: < 1 mg/kg/day
  NOAEL: ≥ 1 mg/kg/day
Rat [12]
  LOAEL: > 150 mg/kg/day
  NEL: 1 mg/kg/day
  NOAEL: ≥ 150 mg/kg/day

## CN1COCN(Cc2cnc(Cl)s2)/C1=N/[N+](=O)[O-] [Thiamethoxam]
Dog [13]
  LEL: 21 mg/kg/day
  LOAEL: 21 mg/kg/day
  NEL: 4.05 mg/kg/day
  NOAEL: 4.05 mg/kg/day
Rat [14]; systemic / pathology microscopic / kidney / dilatation + systemic / pathology microscopic / adrenal gland / fatty change
  LOAEL: 300 mg/kg/day
Rat [14]; [38]
  NEL: 100 mg/kg/day
  NOAEL: 100 mg/kg/day
Rat [14]; systemic / pathology microscopic / kidney / dilatation + systemic / pathology microscopic / adrenal gland / fatty change + systemic / …
  LEL: 300 mg/kg/day
Rat [15]; [39]
  LOAEL: 81.7 mg/kg/day
  NOAEL: 8.04 mg/kg/day
Rat [15]; [40]
  LEL: 8.04 mg/kg/day
  NEL: < 8.04 mg/kg/day
Rabbit [16]; [41]
  LEL: 150 mg/kg/day
  LOAEL: 150 mg/kg/day
  NEL: 50 mg/kg/day
  NOAEL: 50 mg/kg/day
Rabbit [16]; [32]
  LEL: 50 mg/kg/day
  LOAEL: 50 mg/kg/day
Rabbit [16]; [42]
  NEL: 10 mg/kg/day
  NOAEL: 10 mg/kg/day
Rat [17]; [43]
  LEL: 17.6 mg/kg/day
  LOAEL: 17.6 mg/kg/day
Rat [17]; [44]
  NEL: 1.74 mg/kg/day
  NOAEL: 1.74 mg/kg/day
Rat [18]
  LEL: 250 mg/kg/day
  LOAEL: 250 mg/kg/day
  NEL: 60 mg/kg/day
  NOAEL: 60 mg/kg/day
Mouse [19]; [45]
  LEL: 14.3 mg/kg/day
  LOAEL: 14.3 mg/kg/day
Mouse [19]; [46]
  NEL: 1.41 mg/kg/day
  NOAEL: 1.41 mg/kg/day
Rat [20]
  LEL: 63 mg/kg/day
  LOAEL: 63 mg/kg/day
  NEL: 21 mg/kg/day
  NOAEL: 21 mg/kg/day
Dog [21]
  LEL: 32 mg/kg/day
  LOAEL: 32 mg/kg/day
  NEL: 8.23 mg/kg/day
  NOAEL: 8.23 mg/kg/day
Mouse [22]; systemic / pathology microscopic / liver / proliferation
  LEL: 72 mg/kg/day
Mouse [22]; [47]
  LOAEL: > 386 mg/kg/day
  NEL: 16 mg/kg/day
  NOAEL: ≥ 386 mg/kg/day
Rabbit [23]; [48]
  LEL: 150 mg/kg/day
  LOAEL: 150 mg/kg/day
  NEL: 50 mg/kg/day
  NOAEL: 50 mg/kg/day
Rabbit [23]; group: maternal, systemic / in life observation / food consumption / food consumption
  LEL: 50 mg/kg/day
Rabbit [23]; [49]
  LOAEL: 150 mg/kg/day
  NEL: 15 mg/kg/day
  NOAEL: 50 mg/kg/day
Mouse [24]; systemic / organ weight / liver / relative to body weight + systemic / pathology microscopic / liver / hypertrophy + systemic / pathology …
  NEL: 479 mg/kg/day
Mouse [24]; [50]
  LOAEL: 63.8 mg/kg/day
  NOAEL: 2.63 mg/kg/day
Rat [25]; [41]
  LEL: 1000 mg/kg/day
  LOAEL: 1000 mg/kg/day
  NEL: 500 mg/kg/day
  NOAEL: 500 mg/kg/day
Rat [25]; group: maternal, systemic / in life observation / body weight / body weight gain
  LOAEL: 500 mg/kg/day
Rat [25]; [51]
  LEL: 500 mg/kg/day
  NEL: 100 mg/kg/day
  NOAEL: 100 mg/kg/day
Dog [26]
  LEL: 43 mg/kg/day
  LOAEL: 43 mg/kg/day
  NEL: 32.6 mg/kg/day
  NOAEL: 32.6 mg/kg/day
Rat [27]; [52]
  LOAEL: 750 mg/kg/day
  NEL: 30 mg/kg/day
  NOAEL: 200 mg/kg/day
Rat [27]; group: developmental, developmental / developmental malformation / bone / incomplete ossification + developmental / developmental malformation / bone / short …
  LEL: 200 mg/kg/day
Rat [27]; [53]
  LEL: 200 mg/kg/day
  LOAEL: 200 mg/kg/day
  NEL: 30 mg/kg/day
  NOAEL: 30 mg/kg/day
